Experimental data from patent US20170157212A1, “CDK MODULATORS AND METHODS FOR THE TREATMENT OF CANCER” (Salk Institute for Biological Studies, priority 2015, published 2017).

Experiments:
[1] = target: T1, affinity-purified CDK12 kinase complex (Homo sapiens, UniProt Q9NYV4); test: In vitro kinase assay: CDK12 phosphorylation of RNAPII GST-CTD; type: biochemical; conditions: human GST-CTD (52 repeat), increasing levels of recombinant CRIF1, immunoblot, dose-dependent
T1 construct: made in house
T1 sequence (Q9NYV4 whole entry): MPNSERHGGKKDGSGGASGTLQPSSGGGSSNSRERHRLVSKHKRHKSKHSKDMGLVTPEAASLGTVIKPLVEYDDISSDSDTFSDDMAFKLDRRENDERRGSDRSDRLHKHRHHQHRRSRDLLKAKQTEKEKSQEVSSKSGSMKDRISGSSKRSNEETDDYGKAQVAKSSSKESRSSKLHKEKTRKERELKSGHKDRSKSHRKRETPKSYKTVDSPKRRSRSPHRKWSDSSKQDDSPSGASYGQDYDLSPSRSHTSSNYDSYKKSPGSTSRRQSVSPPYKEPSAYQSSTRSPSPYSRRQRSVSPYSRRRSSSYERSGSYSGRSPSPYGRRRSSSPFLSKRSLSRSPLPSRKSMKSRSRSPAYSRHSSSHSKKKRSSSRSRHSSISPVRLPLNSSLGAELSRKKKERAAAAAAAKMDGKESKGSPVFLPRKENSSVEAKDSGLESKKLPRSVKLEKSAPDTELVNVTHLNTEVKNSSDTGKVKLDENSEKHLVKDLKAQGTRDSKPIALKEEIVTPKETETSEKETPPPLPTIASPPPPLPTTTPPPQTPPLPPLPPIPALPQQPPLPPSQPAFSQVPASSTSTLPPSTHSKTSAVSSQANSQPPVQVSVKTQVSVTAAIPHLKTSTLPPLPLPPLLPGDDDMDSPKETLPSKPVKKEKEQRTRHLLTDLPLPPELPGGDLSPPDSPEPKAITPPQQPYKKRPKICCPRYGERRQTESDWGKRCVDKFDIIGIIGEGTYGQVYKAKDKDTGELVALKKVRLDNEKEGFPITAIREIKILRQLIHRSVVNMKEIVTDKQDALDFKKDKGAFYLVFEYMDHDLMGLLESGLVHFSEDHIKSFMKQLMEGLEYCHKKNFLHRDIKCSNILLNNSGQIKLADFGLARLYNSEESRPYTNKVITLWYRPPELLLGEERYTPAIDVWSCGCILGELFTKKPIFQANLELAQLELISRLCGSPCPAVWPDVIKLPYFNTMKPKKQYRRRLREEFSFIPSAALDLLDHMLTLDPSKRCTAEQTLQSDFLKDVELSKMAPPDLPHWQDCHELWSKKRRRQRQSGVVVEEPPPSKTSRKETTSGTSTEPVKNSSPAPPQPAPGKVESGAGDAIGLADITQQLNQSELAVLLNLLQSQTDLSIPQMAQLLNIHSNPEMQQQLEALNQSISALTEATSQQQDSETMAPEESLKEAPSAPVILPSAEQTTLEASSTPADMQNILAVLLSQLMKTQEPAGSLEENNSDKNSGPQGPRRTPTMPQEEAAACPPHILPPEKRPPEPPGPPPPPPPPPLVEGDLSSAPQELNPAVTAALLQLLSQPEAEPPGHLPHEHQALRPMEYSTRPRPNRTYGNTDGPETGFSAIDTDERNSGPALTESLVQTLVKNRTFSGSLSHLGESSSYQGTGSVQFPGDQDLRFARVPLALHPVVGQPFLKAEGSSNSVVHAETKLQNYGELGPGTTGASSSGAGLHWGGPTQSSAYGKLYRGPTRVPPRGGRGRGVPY
T1 sequence (O75909 whole entry partner): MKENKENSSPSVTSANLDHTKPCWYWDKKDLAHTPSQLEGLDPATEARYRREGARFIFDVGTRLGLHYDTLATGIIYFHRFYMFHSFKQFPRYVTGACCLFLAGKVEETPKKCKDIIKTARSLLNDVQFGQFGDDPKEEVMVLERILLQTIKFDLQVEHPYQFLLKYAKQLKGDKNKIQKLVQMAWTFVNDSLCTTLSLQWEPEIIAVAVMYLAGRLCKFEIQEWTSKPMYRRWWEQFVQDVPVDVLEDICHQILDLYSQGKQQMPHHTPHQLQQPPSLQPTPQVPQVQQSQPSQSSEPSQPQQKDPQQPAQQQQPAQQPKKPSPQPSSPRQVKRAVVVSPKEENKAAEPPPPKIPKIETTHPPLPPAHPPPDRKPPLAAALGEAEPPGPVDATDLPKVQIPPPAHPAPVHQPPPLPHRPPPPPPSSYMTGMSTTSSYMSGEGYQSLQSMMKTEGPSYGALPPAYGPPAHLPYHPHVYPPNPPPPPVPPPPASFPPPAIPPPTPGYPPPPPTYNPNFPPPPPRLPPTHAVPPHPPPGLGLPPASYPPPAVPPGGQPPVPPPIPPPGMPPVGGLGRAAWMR
Description: (A) CRIF1 and CDK12 have opposite effects on global RNAPII CTD-Ser2P levels in vivo. U2OS cells were transfected with indicated siRNAs for 48 hr, and RNAPII phosphorylation was monitored by immunoblot using phospho-specific CTD (Ser2P and Ser5P) antibodies. (B) Knockdown of CRIF1 up-regulates CHK1 expression and induction of p53. […] (C) Analysis of steady-state mRNA levels by qRT-PCR in extracts from U2OS cells exposed to control (CTL) or CRIF1-specific siRNAs, as indicated. (D) Depletion of CRIF1 enhances 4E-BP1 phosphorylation at S65 and T70 in vivo, as assessed by immunoblot using phospho-specific antibodies. (E) CRIF1 inhibits RNAPII CTD-Ser2 phosphorylation by CDK12 complexes in vitro. The human GST-CTD (52 repeat) protein was incubated in vitro with the affinity-purified HA-CDK12 kinase complex in the absence or presence of increasing levels of purified recombinant CRIF1, and analyzed by immunoblot with the indicated antisera. […] Analysis of GST-CTD Ser2 phosphorylation was carried out as described in (E), using the affinity-purified FLAG-CDK9 kinase. (G) CRIF1 inhibits 4E-BP1 phosphorylation by CDK12 in vitro. […] was monitored by immunoblot in the absence or in the presence of different levels of affinity-purified recombinant CRIF1. […]

CDK12 = test: Co-immunoprecipitation of CRIF1 with CDK12; type: binding, human; conditions: native complexes
Chain of CDK12 (Q9NYV4 whole entry): as the sequence (Q9NYV4 whole entry) above
Chain of CDK12 (O75909 whole entry partner): as the sequence (O75909 whole entry partner) above
Description: FIGS. 5A-5I. The Mitochondrial OX-PHOS Regulator, CRIF1, is a Novel Subunit of the Human CDK12 Kinase Complex. (A) Identification of CRIF1 as a near-stoichiometric subunit of the native CDK12 kinase complex. MudPIT analysis of CDK12 complexes from HEK293 cells that stably express HA-tagged full-length human CDK12. The HA-CDK12 complex was affinity-purified using anti-HA antibody and visualized by SDS-PAGE and silver-stain. (B) List of the identified proteins in the HA-CDK12 complex from (A). (C) Endogenous CRIF1 co-immunoprecipitates with native CDK12 in U2OS cell extracts. Shown is an immunoblot analysis of CRIF1, CCNK, and the chaperone proteins CDC37 and HSP90 in an anti-CDK12 immunoprecipitate. […] Native CRIF1 was immunoprecipitated from U2OS cells using an anti-CRIF1 antibody and analyzed by co-immunoprecipitation for association with various CDKs, as indicated. […] FLAG-CRIF1 proteins containing different C-terminal truncations were co-expressed with HA-CDK12 (aa 985-1490) and analyzed for binding by co-immunoprecipitation and immunoblot. […] Cell viability was analyzed after 72 hr. […] Expression of the mitochondrial MTCO-1 (COX1) protein was assessed using two different antisera. […] Each fraction (T; total, C:cytosolic, M:membrane/organelle, and N:nuclear) was analyzed by immunoblot using the indicated antibodies. […]
It was next evaluated how CRIF1 targets CDK12. […]

Growth Arrest and DNA Damage-Inducible Proteins-Interacting Protein 1 [CRIF1]
CDK12-mediated phosphorylation of the human GST-CTD substrate (RNAPII CTD-Ser2) [1]: inhibits | CDK12-mediated phosphorylation of the human GST-CTD substrate (RNAPII CTD-Ser2) ([1]; listed as recombinant CRIF1): potently inhibited | presence of CRIF1 in CDK12 complexes (CDK12): present
